The structures appear in SMILES notation. Where a name gives a salt, the structure may show the parent alone.

The test system of one data set is K562 cells. The experiment in a line: Cell viability, Cell Titer Glo 2.0 assay, K562. As to conditions: 72 hours. On the technique in general: ATP-based viability assays read luminescence as a measure of living cells.
A further data set relates to Target C mRNA. Description: Splicing RT-qPCR panel, Target C canonical junction (CJ) mRNA. It counts as cell-based, human. The settings on record: Homo sapiens, read-out: Target C CJ (decrease in CJ mRNA levels, IC50). The method, boiled down: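 A673 cells (DMEM, 10% FBS) or K562 cells (IMDM, 10% FBS) treated 24 h at 37 °C with an 11-point 3-fold dilution, top 10 uM, DMSO ≤0.25%. Canonical-junction mRNA quantified in lysates by RT-qPCR, normalised to GAPDH, GUSB or PPIA and to DMSO (2^−ΔΔCt), then converted to % response.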

Another data set relates to Target C. The experiment in a line: HiBiT protein abundance assay, Target C (K562 HiBiT knock-in). The settings on record: HiBiT knock-in cells, 24 hours. Format: cell-based, human. How it is done: (§1) Cells were maintained in IMDM with 10% FBS. Before the assay, cells were diluted with […] growth media (IMDM+1% FBS media) and were seeded in a 384-well plate at a density of 10000 cells/well (for each cell line listed in Table 6). Each compound was prepared as a 10-point 3-old serial dilution in DMSO with the top dose at a final concentration of 10 μM in the well. Unmodified K562 cells were added at the previously specified density with DMSO to serve as an assay baseline and positive control (PC) and DMSO only with the respective modified cell lines was added to the negative control (NC) columns. Final DMSO concentration was kept at or below 0.25%. Treated cell plates were placed in an incubator at 37° C. with 5% CO2 for 24 hours. After 24 hours, 25 μL of Complete HiBit Lytic reagent was added to each well at room temperature (e.g. one plate requiring 10 ml Lytic Buffer, 100 μL LgBiT Protein, 200 μL Lytic Substrate), shaken for 5 minutes at 600 RPM, then left to sit for 10 minutes for signal to stabilize before reading on a Spark Cyto plate reader (Tecan) with a 500 ms measurement time.
(§2) To determine compound effects on protein abundance of each target in Table 6, the percent response for each respective cell line was calculated at each compound concentration as follows:
(§3) For the normalized response at each concentration, a four-parameter logistical regression was fit to the data and the response was interpolated at the 50% value to determine a concentration for protein abundance at 50% (IC50) the untreated control.
For orientation: The HiBiT peptide binds its large partner to form an active luciferase.

The test system of another data set is HiBiT-tagged HTT protein. The experiment in a line: HiBiT protein abundance assay, HTT (K562 HiBiT knock-in). Format: cell-based, human. As to conditions: HiBiT knock-in cells, 24 hours. As to the method: Compounds described herein were used to screen for effects on quantitative protein abundance using a HiBit assay system (Promega). Quantitative protein abundance was determined by measuring the protein levels of HiBit-tagged protein targets expressed in cell culture via luminescence using the Nano-Glo HiBiT Lytic Detection System, which uses a split complementation assay format to reconstitute NanoBiT enzyme to generate a luminescent signal. A protein abundance assay was developed such that endogenous protein targets could be modified with the HiBiT peptide tag and their abundance could be assessed after compound treatment. Briefly, K562 cell lines containing a HiBiT-modification were treated with various compounds described herein (e.g., compounds of Formulas (I), or (II)). After treatment for 24 hours, the protein abundance of a specific target was determined by measuring luminescence.
• Promega Nano-Glo HiBiT Lytic Detection System (cat #N3030) • Corning 384-well TC-treated microplates (cat #3570)
as §1, §2, §3

The IC50 is the point on the concentration scale where inhibition reaches its midpoint. Consider `CN[C@@H]1CN(c2cnc3nc(-c4cc5cn(C)nc5c(C)c4O)ccc3c2)C[C@H]1F` (single isomer, unassigned) [Compound 130], for which the “Effect on Cell Viability, K562” value with K562 cells was “B (100-1000 nM)”. For the same compound, the IC50 in the data set with Target C mRNA, in the data set on Target C and in the data set with HiBiT-tagged HTT protein was 100 to 1000 nM each time.

On to `CN[C@H]1CN(c2cnc3nc(-c4cc5cn(C)nc5c(C)c4O)ccc3c2)C[C@@H]1F` (single isomer, unassigned) [Compound 131], for which the “Effect on Cell Viability, K562” value in the data set on K562 cells is “C (1000-9999 nM)”. The IC50 in the data set on Target C mRNA, in the data set with Target C and in the data set on HiBiT-tagged HTT protein was 1000 to 10000 nM in each case.

For `Cc1c(O)c(-c2ccc3cc(N4CCC(NCC5CC5)C4)cnc3n2)cc2cn(C)nc12` (stereo in doubt) [Compound 119, 5-{6-[(3R)-3-[(cyclopropylmethyl)amino]pyrrolidin-1-yl]-1,8-naphthyridin-2-yl}-2,7-dimethylindazol-6-ol], the “Effect on Cell Viability, K562” value with K562 cells is reported as “A (<100 nM)”. For the same compound, the figures for the 50% inhibitory concentration (IC50) in the data set on Target C mRNA, with Target C and with HiBiT-tagged HTT protein were 100 to 1000 nM, 100 to 1000 nM and less than 100 nM, respectively.

Turning to `CNC1CCN(c2cnc3nc(-c4cc5cn(C)nc5c(C)c4O)ncc3c2)C1` (stereo not shown) [Compound 104, 2,7-dimethyl-5-{6-[3-(methylamino)pyrrolidin-1-yl]pyrido[2,3-d]pyrimidin-2-yl}indazol-6-ol], the “Effect on Cell Viability, K562” value in the data set with K562 cells is reported as “A (<100 nM)”. Further, the concentration for half-maximal inhibition (IC50) with Target C and with HiBiT-tagged HTT protein was 100 to 1000 nM each time.

Turning to `Cc1c(O)c(-c2ccc3cc(N4CCC(NCC5CC5)C4)cnc3n2)cc2cn(C)nc12` (stereo not shown) [Compound 105, 5-(6-{3-[(cyclopropylmethyl)amino]pyrrolidin-1-yl}-1,8-naphthyridin-2-yl)-2,7-dimethylindazol-6-ol], the “Effect on Cell Viability, K562” value in the data set on K562 cells is recorded as “A (<100 nM)”. The IC50 was 1000 to 10000 nM in the data set on Target C mRNA, less than 100 nM with Target C and less than 100 nM with HiBiT-tagged HTT protein.

In the case of `CCNC1CCN(c2cnc3nc(-c4cc5cn(C)nc5c(F)c4O)ccc3c2)C1` (stereo not shown) [Compound 106, 5-{6-[3-(ethylamino)pyrrolidin-1-yl]-1,8-naphthyridin-2-yl}-7-fluoro-2-methylindazol-6-ol], in the data set with K562 cells, the “Effect on Cell Viability, K562” value is “A (<100 nM)”. Further, the values for the IC50 in the data set with Target C mRNA, in the data set on Target C and in the data set with HiBiT-tagged HTT protein were 100 to 1000 nM, less than 100 nM and less than 100 nM, respectively.

In the case of `CN[C@@H]1CCN(c2cnc3nc(-c4cc5cn(C)nc5c(C)c4O)ncc3c2)C1` [Compound 107, 2,7-dimethyl-5-{6-[(3R)-3-(methylamino)pyrrolidin-1-yl]pyrido[2,3-d]pyrimidin-2-yl}indazol-6-ol hydrochloride], the “Effect on Cell Viability, K562” value in the data set with K562 cells is on record as “A (<100 nM)”. The IC50 in the data set with Target C mRNA was 100 to 1000 nM; in the data set with Target C, less than 100 nM; in the data set with HiBiT-tagged HTT protein, less than 100 nM.

As for `CN[C@@H]1CCN(c2cnc3nc(-c4cc5cn(C)nc5c(C)c4O)ccc3c2)C1` [Compound 112], the “Effect on Cell Viability, K562” value in the data set with K562 cells is “B (100-1000 nM)”. Also, the IC50 with Target C mRNA is less than 100 nM; in the data set with Target C, 100 to 1000 nM; in the data set with HiBiT-tagged HTT protein, 100 to 1000 nM.

Consider `Cc1cn2nc(-c3cnc4nc(C5CCNCC5)ccc4c3)cc(C)c2n1` [Compound 115, 6-(2,8-dimethylimidazo[1,2-b]pyridazin-6-yl)-2-(piperidin-4-yl)-1,8-naphthyridine], for which the “Effect on Cell Viability, K562” value with K562 cells is on record as “C (1000-9999 nM)”. For the same compound, the half-maximal inhibitory concentration (IC50) is more than 10000 nM in the data set with Target C mRNA, 1000 to 10000 nM in the data set with Target C and 1000 to 10000 nM in the data set with HiBiT-tagged HTT protein.

With `CN[C@H]1CCN(c2cnc3nc(-c4cc(C)c5nc(C)cn5n4)ccc3c2)C1` [Compound 116], in the data set on K562 cells, the “Effect on Cell Viability, K562” value is “A (<100 nM)”. The results for the IC50 in the data set on Target C mRNA, in the data set with Target C and with HiBiT-tagged HTT protein were 100 to 1000 nM, less than 100 nM and less than 100 nM, respectively.

For the compound `CN[C@@H]1CCN(c2cnc3nc(-c4cc(C)c5nc(C)cn5n4)ccc3c2)C1` [Compound 117], the “Effect on Cell Viability, K562” value in the data set with K562 cells is recorded as “B (100-1000 nM)”. Besides, the half-inhibitory concentration (IC50) is 1000 to 10000 nM with Target C mRNA, 100 to 1000 nM with Target C and 100 to 1000 nM with HiBiT-tagged HTT protein.

Regarding `Cc1c(O)c(-c2ccc3cc(N4CC[C@@H](NCC5CC5)C4)cnc3n2)cc2cn(C)nc12` [Compound 118], the “Effect on Cell Viability, K562” value in the data set with K562 cells was “A (<100 nM)”. Also, the IC50 in the data set with Target C mRNA is 100 to 1000 nM; in the data set with Target C it was less than 100 nM; with HiBiT-tagged HTT protein, less than 100 nM.

In the case of `CN[C@H]1CCN(c2cnc3nc(-c4cc5cn(C)nc5c(C)c4O)ncc3c2)C1` [Compound 120], the “Effect on Cell Viability, K562” value in the data set with K562 cells is “A (<100 nM)”. For the same compound, the IC50 in the data set with Target C mRNA is more than 10000 nM; in the data set on Target C it was 1000 to 10000 nM; in the data set on HiBiT-tagged HTT protein it was 100 to 1000 nM.

For the compound `CCNC1CCN(c2cnc3nc(-c4cc5cn(C)nc5c(C)c4O)ccc3c2)C1` (stereo not shown) [Compound 122, 5-{6-[3-(ethylamino)pyrrolidin-1-yl]-1,8-naphthyridin-2-yl}-2,7-dimethylindazol-6-ol], in the data set on K562 cells, the “Effect on Cell Viability, K562” value is given as “A (<100 nM)”. Also, the half-maximal inhibitory concentration (IC50) with Target C mRNA was 100 to 1000 nM; with Target C it was less than 100 nM; in the data set on HiBiT-tagged HTT protein, less than 100 nM.

Consider `CCN[C@H]1CCN(c2cnc3nc(-c4cc5cn(C)nc5c(C)c4O)ccc3c2)C1` [Compound 123], for which the IC50 was 100 to 1000 nM in the data set on Target C mRNA, 100 to 1000 nM in the data set on Target C and less than 100 nM in the data set with HiBiT-tagged HTT protein.

For the compound `CCN[C@@H]1CCN(c2cnc3nc(-c4cc5cn(C)nc5c(C)c4O)ccc3c2)C1` [Compound 124], in the data set on K562 cells, the “Effect on Cell Viability, K562” value is “A (<100 nM)”. The concentration for half-maximal inhibition (IC50) in the data set with Target C mRNA is 100 to 1000 nM; in the data set with Target C, less than 100 nM; in the data set with HiBiT-tagged HTT protein, less than 100 nM.

Take `CN[C@H]1CN(c2cnc3nc(-c4cc5cn(C)nc5c(C)c4O)ccc3c2)C[C@H]1C` [Compound 125, 2,7-dimethyl-5-{6-[(3R,4R)-3-methyl-4-(methylamino)379pyrrolidine-1-yl]-1,8-naphthyridin-2-yl}indazol-6-ol]: in the data set on K562 cells, the “Effect on Cell Viability, K562” value is reported as “A (<100 nM)”. The IC50 is 100 to 1000 nM in the data set on Target C mRNA, 100 to 1000 nM in the data set with Target C and less than 100 nM in the data set on HiBiT-tagged HTT protein.

With `CN[C@@H]1CN(c2cnc3nc(-c4cc5cn(C)nc5c(C)c4O)ccc3c2)C[C@H]1C` [Compound 126, 2,7-dimethyl-5-{6-[(3R,4S)-3-methyl-4-(methylamino)382pyrrolidine-1-yl]-1,8-naphthyridin-2-yl}indazol-6-ol], the “Effect on Cell Viability, K562” value in the data set with K562 cells is “B (100-1000 nM)”. The IC50 with Target C mRNA is 1000 to 10000 nM; with Target C, 1000 to 10000 nM; in the data set on HiBiT-tagged HTT protein, 100 to 1000 nM.

Turning to `Cc1c(O)c(-c2cc(C3CC3)c3cc(N4CCNCC4)cnc3n2)cc2cn(C)nc12` [Compound 144, 5-(4-cyclopropyl-6-(piperazin-1-yl)-1,8-naphthyridin-2-yl)-2,7-dimethyl-2H-indazol-6-ol bis(2,2,2-trifluoroacetate)], the concentration for half-maximal inhibition (IC50) with Target C mRNA fell in the range of 1000 to 10000 nM; in the data set on Target C it was 1000 to 10000 nM; in the data set with HiBiT-tagged HTT protein, 100 to 1000 nM.

In the case of `Cc1cc(-c2cc3cn(C)nc3c(C)c2O)nc2ncc(N3CCNCC3)cc12` [Compound 151, 2,7-dimethyl-5-[4-methyl-6-(piperazin-1-yl)-1,8-naphthyridin-2-yl]indazol-6-ol], the IC50 with Target C mRNA was in the range of 1000 to 10000 nM; in the data set with Target C, 100 to 1000 nM; with HiBiT-tagged HTT protein, 100 to 1000 nM.

Take `CN(c1cnc2nc(-c3cc4cn(C)nc4c(F)c3O)ccc2c1)C1CCNCC1` [Compound 284]: the IC50 in the data set with Target C mRNA is more than 10000 nM; in the data set with Target C it was 1000 to 10000 nM; in the data set on HiBiT-tagged HTT protein, 1000 to 10000 nM.

Values taken from US20250326748A1, “COMPOUNDS AND METHODS FOR MODULATING SPLICING” (REMIX THERAPEUTICS INC., priority 2022, published 2025).
